According to patent publication US10087226B2, “Chimeric peptide that interacts with cell membrane gangliosides” (Universite D'Aix-Marseille, priority 2014, dated 2018):
Ends that are not written are not given here.

Columns and labels:
[1] = system: bEnd-3 cells co-cultured with astrocytic CTX-TNA2 cells
Procedure: (§1) These cells are plated at various densities ranging from 10.000 to 50.000 cells per well in two-compartment cell chambers (Greiner Bio-one). The lower compartment of the chamber is a well that is part of 12-well culture plate. The upper chamber is equipped with a permeable filter (mean pore diameter of 0.4 μm) onto which the cells are seeded. The cells are cultured in DMEM/F12 10% fetal calf serum.
(§2) At confluency, the cells formed a uniform monolayer with a transendothelial resistance of 150-200 Ω·cm^2 (measured with the EVOM apparatus, WPI). The transendothelial resistance reflects the presence of tight junctions overall the culture. These tight junctions efficiently prevent the paracellular passage of molecules. It is considered that the endothelium is tight when this value is >100 Ω·cm^2. Therefore, all experiments are performed with functional endothelial barriers. […]
(§3) The passage of the peptide through the endothelial barrier is thus followed in real-time. The concentration of the chimeric peptide is determined by spectrophotometry. […]

[2] = system: bEnd-3 cells co-cultured with glial C6 cells
Procedure: as §1, §2, §3

SH-SY5Y cells = experiment: Calcium measurements, amyloid pore formation induced by Aβ1-42; assay type: cell-based, human
Procedure: A. In a first experiment, SH-SY5Y cells were treated with Aβ1-42peptide (220 nM), and Ca^2+ dependent fluorescence was analyzed (top curve). In a second series of experiments, Aβ1-42 and the chimeric α-syn34-45/HH peptide (both 220 nM) were mixed extemporaneously directly injected onto the cells (C1 and C2 curves corresponding to two separate experiments). The C3 curve corresponds to the calcium response induced by the chimeric peptide alone. Results are expressed as mean±SD (n=100). In panel B, the same colors were used but the chimeric peptide was replaced by the wild-type α-syn34-45 peptide.
A. SH-SY5Y cells were treated with Aβ1-42 peptide (220 nM), and Ca^2+ dependent fluorescence was analyze. […] In absence of the chimeric peptide (− Pep Chim), amyloid pore formation induced by the Aβ1-42 peptide was evidenced by an increase of Ca^2+ fluorescence inside the cells. […] Warmer colors correspond to higher fluorescence (left scale).
Cells were plated in 35 mm culture dishes, grown during 72 h and loaded with 5 μM Fluo-4 AM (Invitrogen-Life Technologies, Saint Aubin, France) for 30 min in the dark, washed three times with HBSS (Gibco-Life Technologies, Saint-Aubin, France), and incubated for 20 min at 37° C. […] Fluorescence emission at 525 nm was imaged by a digital camera CDD (ORCA-ER Hamanatsu, Japan) after fluorescence excitation at 490 nm. […]

[3] = Lipid monolayer assay, GT1b monolayer; assay type: binding; conditions: peptide 10 μM in aqueous subphase
[4] = Lipid monolayer assay, GD3 monolayer; assay type: binding; conditions: peptide 10 μM in aqueous subphase
[5] = Lipid monolayer assay, GM3 monolayer; assay type: binding
[6] = Lipid monolayer assay, GM4 monolayer; assay type: binding; conditions: peptide 10 μM in aqueous subphase
[7] = Lipid monolayer assay, GD1a monolayer; assay type: binding; conditions: peptide 10 μM in aqueous subphase
[8] = Lipid monolayer assay (Langmuir film balance), GM1 monolayer; assay type: binding; conditions: for interaction with GM1 monolayer (surface pressure increase): peptide 10 μM in subphase
Procedure: Peptide-cholesterol interactions were studied with the Langmuir film balance technique using a Kibron microtensiometer as previously described (Fantini and Yahi, 2011a).
In this experiment, a monolayer of ganglioside GM1 was prepared at the air-water interface and the peptide was injected in the aqueous subphase. The interaction of the peptide with the ganglioside was evidenced by an increase in the surface pressure of the monolayer, which was followed in real-time with a platinum probe (see Thakur et al, 2009 for a full description of the technique and its application to amyloid proteins). […] Then single mutants were assayed to identify which of the two His is actually critical for GM1 recognition. […] In this model, His-13 interacted with one GM1, and His-14 with the second one. Clearly, the cooperation between both GM1 molecules allowed an optimal interaction with the Aβ5-16 peptide driven by histidine residues. Conversely, because it is devoid of these histidine residues, the glycolipid-binding domain of α-synuclein (α-syn34-45) has a marked preference for ganglioside GM3 instead of GM1.

[9] = ganglioside monolayer, peptide 10 μM in aqueous subphase
[10] = initial surface pressure 17.5 mN·m^−1

KEGVLYVGHHTK [α-syn34-45/HH, KEGVLYVGHHTK]
transendothelial resistance after 24 hours of incubation with peptide [1]: 153 Ω·cm^2 | transendothelial resistance after 24 hours of incubation with peptide [2]: 152 Ω·cm^2 | effect of peptide alone on Ca^2+ fluxes (intrinsic neurotoxicity) (SH-SY5Y cells; peptide alone, SH-SY5Y cells): little effect on Ca^2+ fluxes

KEGVLYVGSKTK (listed as Homo sapiens) [α-syn34-45]
Ganglioside specificity: critical pressure of insertion, GT1b [3]: + ((+) means a critical pressure of insertion <25 mN · m^−1) | Ganglioside specificity: critical pressure of insertion, GD3 [4]: + ((+) means a critical pressure of insertion <25 mN · m^−1) | Ganglioside specificity: critical pressure of insertion, GM3 [5, 9]: +++ ((+++) a critical pressure of insertion >25 mN · m^−1) | critical pressure of insertion (πc), GM3 monolayers ([5]; monolayers at various initial surface pressures, x-axis intercept (FIG. 2B)): 37.5 mN·m^−1 | Ganglioside specificity: critical pressure of insertion, GM4 [6]: + ((+) means a critical pressure of insertion <25 mN · m^−1) | effect on elevation of intracellular Ca^2+ levels induced by Aβ1-42 (SH-SY5Y cells; Aβ1-42 220 nM, peptide 220 nM (equimolar), Fluo-4 AM fluorescence): only very little inhibitory activity | Ganglioside specificity: critical pressure of insertion, GD1a [7]: + ((+) means a critical pressure of insertion <25 mN · m^−1) | Ganglioside specificity: critical pressure of insertion, GM1 [8, 9]: + ((+) means a critical pressure of insertion <25 mN · m^−1) | critical pressure of insertion (πc), GM1 monolayers ([8]; monolayers at various initial surface pressures, x-axis intercept (FIG. 2D, 4C)): 25 mN·m^−1

KEHHGVLYVGTK [reversed chimeric peptide]
interaction with GM3 monolayer (surface pressure increase, kinetics) ([5]; peptide in subphase, initial surface pressure 17.5 mN·m^−1): recognizes both GM1 and GM3 gangliosides | interaction with GM1 monolayer (surface pressure increase) [8, 10]: recognizes both GM1 and GM3 gangliosides

RHDSGYEVHHQK (listed as Homo sapiens) [Aβ5-16]
interaction with GM1 monolayer (surface pressure increase) [8, 10]: surface pressure started to increase immediately after the injection | time to maximum surface pressure, GM1 monolayer ([8]; peptide 10 μM, initial surface pressure 17.5 mN·m^−1): 30 min
